The source of these data is patent US9545389B2, “Baclofen and acamprosate based therapy of macular degeneration disorders” (PHARNEXT, priority 2012, dated 2017).

Format in all cases: cell-based
For assay [1], the system named is Rat cortical neurons. The experiment in a line: Cytoplasmic cytochrome C (CytoC) assay in human amyloid-β1-42 intoxicated cortical neurons. To be noted: Aβ1-42 1.25 μM 4 hours; lowering effect. Further details: key: − and −− intensity of lowering effect of compositions; − and −− intensity of lowering effect of compositions. The protocol: (§1) Rat cortical neurons were cultured as described by Singer et al., 1999 [28]. Briefly pregnant female rats of 15 days gestation were killed by cervical dislocation (Rats Wistar) and the fetuses were removed from the uterus. The cortex were removed and placed in ice-cold medium of Leibovitz (L15) containing 2% of Penicillin 10.000 U/ml and Streptomycin 10 mg/ml and 1% of bovine serum albumin (BSA). Cortex were dissociated by trypsin (0.05%) for 20 min at 37° C. The reaction was stopped by the addition of Dulbecco's modified Eagle's medium (DMEM) containing DNase1 grade II (0.1 mg/mL) and 10% of fetal calf serum (FCS). Cells were then mechanically dissociated by 3 serial passages through a 10 ml pipette. Cells were then centrifuged at 515×g for 10 min at 10° C. The supernatant was discarded and the pellet of cells will be re-suspended in a defined culture medium consisting of Neurobasal supplemented with B27 (2%), L-glutamine (0.2 mM), 2% of PS solution and 10 ng/mL of BDNF. Viable cells were counted in a Neubauer cytometer using the trypan blue exclusion test. […]
(§2) Data are expressed in percentage of control conditions (no intoxication, no amyloid=100%) in order to express the amyloid injury. All values are expressed as mean+/−SEM (s.e. mean) of the 3 cultures (n=6 wells per condition). […]

Assay [2] concerns Rat dopaminergic neurons (mesencephalic culture). The experiment in a line: TH neurons survival test after 48 h 6-OHDA injury on dopaminergic neurons. To be noted: for In vitro 6OHDA resistance: TH neurons survival after 48 h 6-OHDA (20 μM) injury. The method, then:
Rat dopaminergic neurons were cultured as described by Schinelli et al. (1988). Pregnant female rats of 15 days gestation were killed by cervical dislocation (Rats Wistar; Janvier) and the foetuses removed from the uterus. The embryonic midbrains were removed and placed in ice-cold medium of Leibovitz (L15; PanBiotech) containing 2% of Penicillin-Streptomycin (PS; PanBiotech) and 1% of bovine serum albumin (BSA; PanBiotech). Only the ventral portions of the mesencephalic flexure were used for the cell preparations as this is the region of the developing brain rich in dopaminergic neurons. The midbrains were dissociated by trypsinisation for 20 min at 37° C. (Trypsin EDTA 1×; PanBiotech). The reaction is stopped by the addition of Dulbecco's modified Eagle's medium (DMEM; PanBiotech) containing DNAase I grade II (0.1 mg/ml; PanBiotech) and 10% of foetal calf serum (FCS; Invitrogen). Cells were then mechanically dissociated by 3 passages through a 10 ml pipette and centrifuged at 180×g for 10 min at +4° C. on a layer of BSA (3.5%) in L15 medium. The supernatant was discarded and the cells of pellet were re-suspended in a defined culture medium consisting of Neurobasal (Invitrogen) supplemented with B27 (2%; Invitrogen), L-glutamine (2 mM; PanBiotech) and 2% of PS solution and 10 ng/ml of Brain-derived neurotrophic factor (BDNF, PanBiotech) and 1 ng/ml of Glial-Derived Neurotrophic Factor (GDNF, PanBiotech). Viable cells were counted in a Neubauer cytometer using the trypan blue exclusion test. The cells were seeded at a density of 40 000 cells/well in 96 well-plates (pre-coated with poly-L-lysine (Greiner)) and are cultured at 37° C. in a humidified air (95%)/CO2 (5%) atmosphere. Half of the medium was changed every 2 days with fresh medium. Five to six percents of the neuronal cell population were dopaminergic neurons. […]
Data are expressed in percentage of control conditions (no intoxication, no 6OHDA=100%) in order to express the 6OHDA injury. All values are expressed as mean+/−SEM (s.e. mean) of the 3 cultures (n=6 wells per condition per culture). […]

The subject of assay [3] is Rat cortical neurons. Description: MetO assay (oxidative stress) in human amyloid-β1-42 intoxicated cortical neurons. To be noted: Aβ1-42 1.25 μM 4 hours; lowering effect. Further details: key: − and −− intensity of lowering effect of compositions; − and −− intensity of lowering effect of compositions. The method, then: as §1, §2

As to `CC(=O)NCCCS(=O)(=O)O` [Acamprosate], the “In vitro CytC level” value with Rat cortical neurons [1] is on record as “−”. Moreover, in assay [2], the “In vitro 6OHDA resistance” value is “improvement”. The “In vitro MetO level” value in the assay with Rat cortical neurons [3] is recorded as “−”.
As for `NCC(CC(=O)O)c1ccc(Cl)cc1` (stereo not shown) [Baclofen], in the assay with Rat cortical neurons [1], the “In vitro CytC level” value is given as “−”. Also, the “In vitro 6OHDA resistance” value in assay [2] was “improvement”. The “In vitro MetO level” value with Rat cortical neurons [3] is given as “−”.

B1: BDNF: Brain-derived neurotrophic factor, used as a positive control (protein, UniProt P23560 19-247, looked up)
Neurotrophic factor BDNF …: APMKEANIRGQGGLAYPGVRTHGTLESVNGPKAGSRGLTSLADTFEHVIEELLDEDQKVRPNEENNKDADLYTSRVMLSSQVPLEPPLLFLLEEYKNYLDAANMSMRVRRHSDPARRGELSVCDSISEWVTAADKKTAVDMSGGTVTVLEKVPVSKGQLKQYFYETKCNPMGYTKEGCRGIDKRHWNSQCRTTQSYVRALTMDSKKRIGWRFIRIDTSCVCTLTIKRGR
Consider B1, for which the “protection of dopaminergic neurons from 6-OHDA injury” value in assay [2] (1 hour pre-treatment at 1.85 nM, positive control) was “significantly protected”.
